Consider three compounds from patent US10899756B2, “Phosphodiesterase inhibitors and uses thereof” (The Trustees of Columbia University in the City of New York, priority 2013, dated 2021).

A word on the Cmax: it is the highest concentration seen after dosing. One may read the half-life as how long it takes for the measured level to halve.

The subject of data set [1] is LTP in hippocampal slices of APP/PS1 mice. In words: Long-term potentiation in hippocampal slices, compound through the bath perfusion. Particulars: 50 nM bath perfusion.
The test system is the same in data set [2]. Briefly: Long-term potentiation in slices after 3 weeks daily i.p. treatment and 9-12 weeks without treatment. It counts as in vivo. Particulars: 3 mg/kg/day i.p. for 3 weeks from 3 months of age, treatment stopped 9-12 weeks prior to testing. Here is the method: Transverse hippocampal slices (400 μm) were cut with a tissue chopper (EMS, PA) and maintained in an interface chamber at 29° C. for 90 min prior to recording, as described in Vitolo et al, Proc. Natl. Acad. Sci. USA 2002, 13217-13221, herein incorporated by reference in its entirety. The extracellular bath solution consisted of 124.0 mM NaCl, 4.4 mM KCl, 1.0 mM Na2HPO4, 25.0 mM NaHCO3, 2.0 mM CaCl2, 2.0 mM MgSO4, and 10.0 mM glucose, continuously aerated with 95% O2/5% CO2 to a final pH of 7.4. Field extracellular postsynaptic responses (fEPSPs) were recorded by placing the stimulating and recording electrodes in CA1 stratum radiatum. […] Basal synaptic transmission was first assessed by plotting the stimulus voltages (V) against slopes of fEPSP to generate input-output relations. A 20-30 min baseline was first recorded every minute at an intensity that evoked a response at approximately 35% of the maximum evoked response. […] Responses were measured as fEPSP slopes expressed as percentage of baseline.
Slices from transgenic mice treated with the compound had 226.23%±6.72 potentiation compared to 164.12%±10.37 in slices from vehicle-treated transgenic mice (FIG. 3). Residual potentiation recorded during the last 5 minutes of a 2 hr recording following tetanic stimulation of the Schaffer collateral fibers at the CA3-CA1 connection.

Data set [3] concerns APP/PS1 mice. In words: 2-day radial arm water maze (reference memory). It is filed as in vivo. The procedure:
The radial arm water maze task, a hybrid of the classic Morris Water Maze and the radial arm land maze, was performed as described in J. Alamed, D. M. Wilcock, D. M. Diamond, M. N. Gordon, D. Morgan, Two-day radial-arm water maze learning and memory task; robust resolution of amyloid-related memory deficits in transgenic mice, Nat. Prot. 1 (2006) 1671-1679, herein incorporated by reference in its entirety. The mouse had to swim in 6 alleys (arms) radiating from a central area until it found a hidden (submerged) platform at the end of one of the arms, based on visual cues placed in the room. The first day of the protocol was a training day on which mice were trained to identify the platform location by alternating between a visible and a hidden platform in a goal arm. The final 3 trials on that day and all 15 trials on day 2 used a hidden escape platform to force mice to use spatial cues to identify the location of the goal arm. […] The number of incorrect arm entries (entries to arms with no platform) was counted. […] Failure to select an arm after 15 sec was counted as an error and the mouse was returned to the start arm. […] For data analysis, averages for each mouse were calculated using blocks of 3 trials. […]

Data set [4] deals with APP/PS1 mice. In words: Contextual fear conditioning (fear memory). It counts as in vivo. Here is the method: Fear conditioning was assessed as described in B. Gong, O. V. Vitolo, F. Trinchese, S. Liu, M. Shelanski, O. Arancio, Persistent improvement in synaptic and cognitive functions in an Alzheimer mouse model after rolipram treatment, J. Clin. Invest. 114 (2004) 1624-1634; F. Trinchese, S. Liu, F. Battaglia, S. Walter, P. M. Mathews, O. Arancio, Progressive age-related development of Alzheimer-like pathology in APP/PS1 mice, Ann. Neurol. 55 (2004) 801-814; and B. Gong, Z. Cao, P. Zheng, O. V. Vitolo, S. Liu, A. Staniszewski, D. Moolman, H. Zhang, M. Shelanski, O. Arancio, Ubiquitin hydrolase Uch-L1 rescues beta-amyloid-induced decreases in synaptic function and contextual memory, Cell 126 (2006) 775-788; each herein incorporated by reference in its entirety. […] Freezing behavior, defined as the absence of movements except for respiratory excursions, was scored using Freezeview software (Med Associates, St. Albans, Vt.). Contextual fear learning was evaluated 24 hrs after training by measuring freezing responses for 5 min in the same chamber where the mice were trained. Cued fear learning was evaluated 24 hrs after contextual testing. The mice were placed in a novel context for 2 min (pre-CS test), after which they were given a CS for 3 min (CS test), and freezing behavior was measured during the first 30 sec that mimic the CS-US conditioning and the remaining 2.5 min. […]

Data set [5] is described as follows: Pharmacokinetic study, brain and plasma. It is filed as in vivo, C57B16 mice. Particulars: 25 mg/kg i.p., mice; for half-life: read-out: t½ (elimination half-life) (converted).
Data set [6] is described as follows: Acute toxicity study with histology. It is filed as in vivo. To be noted: 120 or 240 mg/kg, i.p. An excerpt: Brain, muscle, kidney, and liver were harvested from each mouse, and tissue from each organ was examined histologically by a board-certified pathologist for signs of toxicity.
Data set [7] is described as follows: Metabolite formation (H versus D substitution). It is filed as in vitro ADME. To be noted: substitution of H with D; instead of three.
For data set [8], the system named is APP/PS1 mice. In words: Preliminary studies with sildenafil in APP/PS1 mice. It counts as in vivo. To be noted: persist beyond the administration of the inhibitor.
Setting [9] is: 3-4 month old APP/PS1 mice, 3 mg/kg i.p. for 3 weeks.
[10] abbreviates: APP/PS1 mice, 3 mg/kg/day i.p. for 3 weeks at 3-4 months, treatment stopped 9-12 weeks, examined at 6-7 months.

Where two headings read alike, the source gives them in different places.

Take `COc1ccc(CNc2c3c(nc4ccc(C#N)cc24)CCN(C(C)=O)C3)cc1Cl` [Compound H, 2-acetyl-10-[(3-chloro-4-methoxybenzyl)amino]-1,2,3,4-tetrahydrobenzo[b][1,6]naphthyridine-8-carbonitrile]: in data set [1], the “effect on potentiation in WT slices” value is “no effect”. In addition, the “residual potentiation (fEPSP slope, percentage of baseline)” value in data set [2] is reported as 226.23%±6.72. Also, in data set [3] (setting [9]), the “errors in the last trial of the 2-day RAWM test” value is given as 1 to 2 errors. In data set [3] (setting [10]), the “errors in the 2-day RAWM test” value is listed as roughly 1 error. Besides, in data set [4] (setting [9]), the “freezing, contextual fear memory 24 hrs after shock” value is roughly 30%. Moreover, the “freezing, contextual memory” value in data set [4] (setting [10]) was roughly 40%. Further, in data set [5] (Brain), the “t½ (elimination half-life)” value was found to be 39 min. Also, the “t½ (elimination half-life)” value in data set [5] (Plasma) worked out at 64.2 min. Moreover, in data set [5] (male, C57B16, mouse, ip, Brain), the Cmax stood at 492 ng/g and the half-life was 39 min. Moreover, in data set [5] (male, C57B16, mouse, ip, Plasma), the half-life was 64.2 min. Besides, in data set [6], the “brain sections, CD45 immunostain” value was “no signs of inflammation”; the “brain sections, GFAP immunostain” value was “no signs of gliosis”; the “brain sections, H&E” value is “did not show any signs of toxicity”; the “brain sections, LFB-PAS stain” value is listed as “no signs of demyelination”. For the same compound, in data set [6], the “kidney sections, H&E staining” value was “no toxicity”; the “kidney sections, PAS staining” value is reported as “did not show any abnormalities in the glomerular basement membrane”; the “kidney sections, trichrome staining” value was “no fibrosis”; the “liver sections, H&E staining” value is “did not show any signs of toxicity”. Also, in data set [6], the “liver sections, trichrome stain” value is listed as “no fibrosis or cirrhotic liver disease”; the “muscle sections, H&E” value is given as “no signs of toxicity”; the “muscle sections, trichrome stain” value is “no muscle fibrosis”; the “neurotoxicity in the brain” value was “no signs of neurotoxicity”.

Regarding `[2H]C([2H])(Nc1c2c(nc3ccc(C#N)cc13)CCN(C(C)=O)C2)c1ccc(OC)c(Cl)c1` [U], in data set [7], the “number of metabolites formed” value came to 1.

As to `CCCc1nn(C)c2c(=O)[nH]c(-c3cc(S(=O)(=O)N4CCN(C)CC4)ccc3OCC)nc12` [sildenafil], the “effects on synaptic and cognitive abnormalities” value in data set [8] is “prolonged beneficial effects”.
